What was measured:
[1] = (§1) Inhibitory activity against Carboxypeptidase A (CPA)
[2] = as §1; remark: listed apart in the source

Row | Ki [1] | K inact [2] | SMILES
1 | 86 µM | 1.59 min⁻¹ | O=C(O)[C@H](Cc1ccccc1)[C@H]1CO1 (single isomer, unassigned)
2 | 155 µM | 1.11 min⁻¹ | O=C(O)[C@@H](Cc1ccccc1)[C@H]1CO1

Row | SMILES | Ki [1] | K inact [2]
3 | O=C(O)[C@H](Cc1ccccc1)[C@H]1CS1 | 94 µM | 1.31 min⁻¹
